Test results published in US20170335304A1, “OXIDIZED PROTEIN HYDROLASE ACTIVITY ENHANCING AGENT AND GLYCATION STRESS INHIBITOR” (ARKRAY, Inc., priority 2016, published 2017).

Assays:
Format in all cases: biochemical
[1] = biological target: AGEs modified bovine serum albumin (AGE-BSA) cross-linked to collagen (Bos taurus, UniProt P02769); test: AGEs Cross-Link Breaking Effect Confirmatory Test (Test 2); conditions: cross-link breaking reaction at 37° C. for 18 hours; punicalagin 5 mmol/L
Procedure: The test was carried out according to the description in Sara Vasan et al. (Nature, 382, pp275-278 (1996)).
300 μL/well of SuperBlock T20 (PBS) Blocking Buffer was added to a commercially available 96-well microplate precoated with collagen, which then was reacted at 37° C. for one hour. After the reaction, it was washed with 0.05% polyethylene (20) sorbitan monolaurate (Tween 20)/PBS(-), and then AGEs modified bovine serum albumin (AGE-BSA) was added to each well of the microplate, which then was subjected to a crosslinking reaction at 37° C. for four hours. After the reaction, it was washed with Tween 20/PBS(-). Thereafter, a plant extract was added to each well and thereby it was subjected to a cross-link breaking (cleaving) reaction at 37° C. for 18 hours. After that, it was washed with Tween 20/PBS(-) and a primary antibody (anti-albumin bovine serum rabbit-polyclonal) was added thereto, which then was reacted at room temperature for 30 minutes. […] As a reaction stop solution, 1N HCl was added thereto, and the absorbance at 450 nm (dominant wavelength)/630 nm (complementary wavelength) was measured with a microplate reader. The amount of AGE-BSA that remained was determined from a calibration curve in which the amount of AGE-BSA was varied. Furthermore, the AGE-BSA decomposition rate (Collagen cross-link decomposition rate)was determined using the following formula. […]

[2] = biological target: T1, Acylamino-acid releasing enzyme (AARE) (OPH) (Sus scrofa, UniProt P19205); test: OPH Activation Confirmatory Test (Test 2); conditions: sample solution 5 mg/ml; 24 hours at 37° C.; relative to Ref without sample; n=3
T1 construct: purchased Takara Bio Inc
T1 sequence (P19205 1-732): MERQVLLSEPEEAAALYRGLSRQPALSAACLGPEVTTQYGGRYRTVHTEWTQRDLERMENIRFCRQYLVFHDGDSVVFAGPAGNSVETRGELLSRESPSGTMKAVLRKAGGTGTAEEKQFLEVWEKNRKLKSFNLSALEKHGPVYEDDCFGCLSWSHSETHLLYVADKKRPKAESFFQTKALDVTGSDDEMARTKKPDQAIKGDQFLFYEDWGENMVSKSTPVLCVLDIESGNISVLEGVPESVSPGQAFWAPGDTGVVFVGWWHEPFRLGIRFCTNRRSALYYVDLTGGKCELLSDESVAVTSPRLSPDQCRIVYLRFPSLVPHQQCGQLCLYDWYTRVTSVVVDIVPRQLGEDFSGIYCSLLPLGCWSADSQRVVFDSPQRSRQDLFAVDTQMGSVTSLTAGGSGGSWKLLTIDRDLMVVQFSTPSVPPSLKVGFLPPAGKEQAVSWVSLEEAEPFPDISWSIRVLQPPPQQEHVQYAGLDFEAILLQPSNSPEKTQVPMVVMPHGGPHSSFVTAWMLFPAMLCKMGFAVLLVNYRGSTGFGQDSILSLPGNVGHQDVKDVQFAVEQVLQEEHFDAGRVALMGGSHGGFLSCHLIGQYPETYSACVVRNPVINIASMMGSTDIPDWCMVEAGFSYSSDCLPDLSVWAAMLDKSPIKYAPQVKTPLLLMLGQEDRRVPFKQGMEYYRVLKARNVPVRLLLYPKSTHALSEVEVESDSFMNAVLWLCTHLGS
Procedure: To each plant indicated in Table 3 below, 15 times its amount of water was added and it was extracted at 100° C. for 30 minutes and then was solid-liquid separated and condensed. Thereafter, it was sterilized at 100° C. or higher for 30 minutes or less, which then was spray-dried. Thus, plant extract powders were obtained.
Each plant extract powder mentioned above was diluted with distilled water so as to be 5 mg/ml, which then was used as a sample solution. […]
The OPH Solution, the AAPA solution, and the sample solution (5 mg/mi) were mixed together to be added to each well of a 96-well microplate and then were reacted for 24 hours in an incubator set at 37° C. The absorbance at 405 nm of each reaction solution was measured with a microplate reader.
The enzyme activity of the OPH was determined as variation in absorbance (reaction rate) per hour (the OPH reaction rate of the sample). On the other hand, as a reference (Ref), the same measurement was carried out without adding the sample solution and then the reaction rate was determined (the OPH reaction rate of Ref). Using the OPH reaction rate of the sample and the OPH reaction rate of Ref, the OPH activation rate (%) was calculated from the following formula (n=3). […]

[3] = AGEs Cross-link Breaking Effect Confirmatory Test (Test 1); conditions: 10 mmol/L PPD, pH 7.4, 37° C., eight hours; n=3; PTB 10 mmol/L
Procedure: The test was carried out according to the description in […] al. (Nature, 382, pp275-278 (1996)). […] A plant extract, 10 mmol/L of PPD, and 0.2 mol/L of phosphate buffer solution (pH 7.4) were mixed together at a ratio of 5:1:4 and then were reacted at 37° C. for eight hours (n=3). After completion of the reaction, hydrochloric acid was added thereto to stop the reaction and thus a reaction solution was obtained. […] The amount of benzoic acid contained in the reaction solution was determined by subtracting the amount of benzoic acid contained in the plant extract, which was measured separately. Since 1 mol of PPD produces 1 mol of benzoic acid, the cross-link breaking rate was calculated by the following formula. Cross-link breaking rate (%)={(A-B)/C}×100 • A: The amount of benzoic acid contained in the reaction solution • B: The amount of benzoic acid contained in the plant extract • C: The amount of PPD provided for the reaction (the amount of the substrate) As a control, a test was carried out using 10 mmol/L of PTB instead of the plant extract.

[4] = AGEs Cross-Link Breaking Effect Confirmatory Test (Test 3); conditions: same measurement as Test 1, mixture solid content 7.42 mg/mL
Procedure: A plant extract, 10 mmol/L of PPD, and 0.2 mol/L of phosphate buffer solution (pH 7.4) were mixed together at a ratio of 5:1:4 and then were reacted at 37° C. for eight hours (n=3). After completion of the reaction, hydrochloric acid was added thereto to stop the reaction and thus a reaction solution was obtained. […] The amount of benzoic acid contained in the reaction solution was determined by subtracting the amount of benzoic acid contained in the plant extract, which was measured separately. Since 1 mol of PPD produces 1 mol of benzoic acid, the cross-link breaking rate was calculated by the following formula. Cross-link breaking rate (%)={(A−B)/C}×100 • A: The amount of benzoic acid contained in the reaction solution • B: The amount of benzoic acid contained in the plant extract • C: The amount of PPD provided for the reaction (the amount of the substrate) As a control, a test was carried out using 10 mmol/L of PTB instead of the plant extract. The same measurement as in the AGEs cross-link breaking effect confirmatory test (Test 1) was carried out except for using a mixture of plant extracts indicated in Table 6 below.

Sequence of AGEs modified bovine serum albumin (AGE-BSA) cross-linked to collagen (P02769 25-607): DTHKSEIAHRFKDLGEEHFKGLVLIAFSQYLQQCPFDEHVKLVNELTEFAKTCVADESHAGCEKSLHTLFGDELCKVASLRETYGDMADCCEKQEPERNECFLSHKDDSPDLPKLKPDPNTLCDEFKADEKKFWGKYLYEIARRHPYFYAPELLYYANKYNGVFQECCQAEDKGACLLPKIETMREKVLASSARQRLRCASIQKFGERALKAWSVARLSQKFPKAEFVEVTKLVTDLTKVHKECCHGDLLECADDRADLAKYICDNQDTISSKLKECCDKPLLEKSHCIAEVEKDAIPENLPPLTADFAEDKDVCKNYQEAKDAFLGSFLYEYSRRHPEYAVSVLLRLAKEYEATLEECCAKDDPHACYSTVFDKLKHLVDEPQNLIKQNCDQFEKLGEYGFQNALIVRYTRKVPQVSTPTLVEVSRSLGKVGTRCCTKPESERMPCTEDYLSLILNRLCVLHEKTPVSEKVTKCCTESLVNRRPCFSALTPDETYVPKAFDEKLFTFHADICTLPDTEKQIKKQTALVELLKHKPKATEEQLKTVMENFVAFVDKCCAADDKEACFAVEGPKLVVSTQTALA

O=C1O[C@H]2[C@@H]3OC(=O)c4cc(O)c(O)c(O)c4-c4c(O)c(O)c5oc(=O)c6c(c(O)c(O)c7oc(=O)c4c5c76)-c4c(cc(O)c(O)c4O)C(=O)OC[C@H]3OC(O)[C@@H]2OC(=O)c2cc(O)c(O)c(O)c2-c2c1cc(O)c(O)c2O (mixture of isomers) [Punicalagin]
Amount of Remaining AGE-BSA [1]: 343.3 ng | Collagen Cross-Link Decomposition Rate (%) [1]: 65.7%

O=C(O[C@@H]1Cc2c(O)cc(O)cc2O[C@@H]1c1cc(O)c(O)c(O)c1)c1cc(O)c(O)c(O)c1 [EGCg, Epigallocatechin gallate]
OPH Activation Rate (%) (Mean Value ± Standard Deviation) [2]: 15.5 ± 3.2%

O=C(C[n+]1ccsc1)c1ccccc1.[Br-] [PTB, N-phenacylthiazolium bromide]
Cross-Link Breaking Rate (%) (Mean Value ± Standard Deviation) [3]: 20.47 ± 0.29% | Cross-Link Breaking Rate (%) (Mean Value ± Standard Deviation) [4]: 25.34 ± 0.19%
